Measured values: PubChem BioAssay AID1963449 (Molecular Pharmacology Branch, DTP, NCI, 2024)

Tested on: 596521-263-R-J1-PDC complex spheroid growth
Assay: Anticancer human tumor 596521-263-R-J1-PDC patient-derived soft tissue sarcoma cell line growth inhibition [Asc]
Conditions: for IC50: curve of first compound; for viability, T/C: stronger effect = lower value
Summary of the method: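 Tumor cells were grown as complex spheroids with human endothelial cells (HUVEC) and human mesenchymal stem cells as stroma. Agents were tested alone and in combination, in half-log steps down from the clinical Cmax, or from 10 microM where Cmax was unknown.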

[1] = second compound 0.00949 µM, first compound 0.00316 µM
[2] = second compound 0.00949 µM, first compound 0.01 µM
[3] = second compound 0.00949 µM, first compound 0.0316 µM
[4] = second compound 0.00949 µM, first compound 0.1 µM
[5] = second compound 0.03 µM, first compound 0.00316 µM
[6] = second compound 0.03 µM, first compound 0.01 µM
[7] = second compound 0.03 µM, first compound 0.0316 µM
[8] = second compound 0.03 µM, first compound 0.1 µM
[9] = second compound 0.0949 µM, first compound 0.00316 µM
[10] = second compound 0.0949 µM, first compound 0.01 µM
[11] = second compound 0.0949 µM, first compound 0.0316 µM
[12] = second compound 0.0949 µM, first compound 0.1 µM
[13] = second compound 0.3 µM, first compound 0.00316 µM
[14] = second compound 0.3 µM, first compound 0.01 µM
[15] = second compound 0.3 µM, first compound 0.0316 µM
[16] = second compound 0.3 µM, first compound 0.1 µM
[17] = second compound 0.949 µM, first compound 0.00316 µM
[18] = second compound 0.949 µM, first compound 0.01 µM
[19] = second compound 0.949 µM, first compound 0.0316 µM
[20] = second compound 0.949 µM, first compound 0.1 µM
[21] = second compound 3 µM, first compound 0.00316 µM
[22] = second compound 3 µM, first compound 0.01 µM
[23] = second compound 3 µM, first compound 0.0316 µM
[24] = second compound 3 µM, first compound 0.1 µM
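Also: spheroids exposed to compounds for 7 days.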

CNC(C)C(=O)NC1CN(S(=O)(=O)c2cccc(S(=O)(=O)N3CCC4CCC(C(=O)NC(c5ccccc5)c5ccccc5)N4C(=O)C(NC(=O)C(C)NC)C3)c2)CCC2CCC(C(=O)NC(c3ccccc3)c3ccccc3)N2C1=O (stereo unspecified) + CCN1C(C(=O)NC23CCC(C(=O)O)(CC2)CC3)C(c2cccc(Cl)c2F)C2(C(=O)Nc3cc(Cl)ccc32)C12CCCCC2
IC50 (second compound 0.00949 µM): > 1000 nM | IC50 (second compound 0.03 µM): > 1000 nM | IC50 (second compound 0.0949 µM): > 1000 nM | IC50 (second compound 0.3 µM): > 1000 nM | IC50 (second compound 0.949 µM): > 1000 nM | IC50 (second compound 3 µM): > 1000 nM | viability, T/C [1]: 92.4% | viability, T/C [2]: 87.3% | viability, T/C [3]: 111% | viability, T/C [4]: 96% | viability, T/C (second compound 0.00949 µM, first compound 0.316 µM): 87% | viability, T/C (second compound 0.00949 µM, first compound 1 µM): 86.3% | viability, T/C [5]: 96.4% | viability, T/C [6]: 86.5% | viability, T/C [7]: 88.5% | viability, T/C [8]: 87.7% | viability, T/C (second compound 0.03 µM, first compound 0.316 µM): 87.5% | viability, T/C (second compound 0.03 µM, first compound 1 µM): 73.1% | viability, T/C [9]: 102% | viability, T/C [10]: 105% | viability, T/C [11]: 85.2% | viability, T/C [12]: 94.7% | viability, T/C (second compound 0.0949 µM, first compound 0.316 µM): 91.4% | viability, T/C (second compound 0.0949 µM, first compound 1 µM): 89.8% | viability, T/C [13]: 104% | viability, T/C [14]: 104% | viability, T/C [15]: 98.4% | viability, T/C [16]: 91.5% | viability, T/C (second compound 0.3 µM, first compound 0.316 µM): 94.2% | viability, T/C (second compound 0.3 µM, first compound 1 µM): 70.3% | viability, T/C [17]: 99% | viability, T/C [18]: 90.2% | viability, T/C [19]: 98.8% | viability, T/C [20]: 80.3% | viability, T/C (second compound 0.949 µM, first compound 0.316 µM): 78.8% | viability, T/C (second compound 0.949 µM, first compound 1 µM): 84.4% | viability, T/C [21]: 78.2% | viability, T/C [22]: 87.8% | viability, T/C [23]: 82.8% | viability, T/C [24]: 73.5% | viability, T/C (second compound 3 µM, first compound 0.316 µM): 69.3% | viability, T/C (second compound 3 µM, first compound 1 µM): 65.4%

O=C(c1ccc(F)c(F)c1Nc1ccc(I)cc1F)N1CC(O)([C@@H]2CCCCN2)C1 + CNC(C)C(=O)NC1CN(S(=O)(=O)c2cccc(S(=O)(=O)N3CCC4CCC(C(=O)NC(c5ccccc5)c5ccccc5)N4C(=O)C(NC(=O)C(C)NC)C3)c2)CCC2CCC(C(=O)NC(c3ccccc3)c3ccccc3)N2C1=O
IC50 (second compound 0.00316 µM): 179 nM | IC50 (second compound 0.01 µM): 248 nM | IC50 (second compound 0.0316 µM): 211 nM | IC50 (second compound 0.1 µM): 187 nM | IC50 (second compound 0.316 µM): 186 nM | IC50 (second compound 1 µM): 149 nM | viability, T/C (second compound 0.00316 µM, first compound 0.00316 µM): 94% | viability, T/C (second compound 0.00316 µM, first compound 0.01 µM): 89.4% | viability, T/C (second compound 0.00316 µM, first compound 0.0316 µM): 90.5% | viability, T/C (second compound 0.00316 µM, first compound 0.1 µM): 63.4% | viability, T/C (second compound 0.00316 µM, first compound 0.316 µM): 37.2% | viability, T/C (second compound 0.00316 µM, first compound 1 µM): 27.1% | viability, T/C (second compound 0.01 µM, first compound 0.00316 µM): 88.4% | viability, T/C (second compound 0.01 µM, first compound 0.01 µM): 75.8% | viability, T/C (second compound 0.01 µM, first compound 0.0316 µM): 93.3% | viability, T/C (second compound 0.01 µM, first compound 0.1 µM): 69.6% | viability, T/C (second compound 0.01 µM, first compound 0.316 µM): 45.2% | viability, T/C (second compound 0.01 µM, first compound 1 µM): 27.8% | viability, T/C (second compound 0.0316 µM, first compound 0.00316 µM): 96.6% | viability, T/C (second compound 0.0316 µM, first compound 0.01 µM): 87% | viability, T/C (second compound 0.0316 µM, first compound 0.0316 µM): 84.9% | viability, T/C (second compound 0.0316 µM, first compound 0.1 µM): 61% | viability, T/C (second compound 0.0316 µM, first compound 0.316 µM): 43.9% | viability, T/C (second compound 0.0316 µM, first compound 1 µM): 27.3% | viability, T/C (second compound 0.1 µM, first compound 0.00316 µM): 76.5% | viability, T/C (second compound 0.1 µM, first compound 0.01 µM): 73.3% | viability, T/C (second compound 0.1 µM, first compound 0.0316 µM): 73% | viability, T/C (second compound 0.1 µM, first compound 0.1 µM): 65% | viability, T/C (second compound 0.1 µM, first compound 0.316 µM): 37.5% | viability, T/C (second compound 0.1 µM, first compound 1 µM): 22.8% | viability, T/C (second compound 0.316 µM, first compound 0.00316 µM): 78.9% | viability, T/C (second compound 0.316 µM, first compound 0.01 µM): 91.6% | viability, T/C (second compound 0.316 µM, first compound 0.0316 µM): 77.4% | viability, T/C (second compound 0.316 µM, first compound 0.1 µM): 65.9% | viability, T/C (second compound 0.316 µM, first compound 0.316 µM): 36.8% | viability, T/C (second compound 0.316 µM, first compound 1 µM): 23.8% | viability, T/C (second compound 1 µM, first compound 0.00316 µM): 65.9% | viability, T/C (second compound 1 µM, first compound 0.01 µM): 68.8% | viability, T/C (second compound 1 µM, first compound 0.0316 µM): 74.2% | viability, T/C (second compound 1 µM, first compound 0.1 µM): 53.2% | viability, T/C (second compound 1 µM, first compound 0.316 µM): 37.9% | viability, T/C (second compound 1 µM, first compound 1 µM): 18.3%

NC1CCC(NC2CC2c2ccccc2)CC1 (stereo unspecified) + CCN1C(C(=O)NC23CCC(C(=O)O)(CC2)CC3)C(c2cccc(Cl)c2F)C2(C(=O)Nc3cc(Cl)ccc32)C12CCCCC2
IC50 (second compound 0.00949 µM): > 100 nM | IC50 (second compound 0.03 µM): > 100 nM | IC50 (second compound 0.0949 µM): > 100 nM | IC50 (second compound 0.3 µM): > 100 nM | IC50 (second compound 0.949 µM): > 100 nM | IC50 (second compound 3 µM): > 100 nM | viability, T/C (second compound 0.00949 µM, first compound 0.000316 µM): 98.8% | viability, T/C (second compound 0.00949 µM, first compound 0.001 µM): 78.1% | viability, T/C [1]: 84.2% | viability, T/C [2]: 88.9% | viability, T/C [3]: 83.7% | viability, T/C [4]: 105% | viability, T/C (second compound 0.03 µM, first compound 0.000316 µM): 84.2% | viability, T/C (second compound 0.03 µM, first compound 0.001 µM): 85.3% | viability, T/C [5]: 89.6% | viability, T/C [6]: 87.6% | viability, T/C [7]: 82.5% | viability, T/C [8]: 88.7% | viability, T/C (second compound 0.0949 µM, first compound 0.000316 µM): 95.3% | viability, T/C (second compound 0.0949 µM, first compound 0.001 µM): 87.9% | viability, T/C [9]: 85% | viability, T/C [10]: 84.5% | viability, T/C [11]: 89.1% | viability, T/C [12]: 81.4% | viability, T/C (second compound 0.3 µM, first compound 0.000316 µM): 87.7% | viability, T/C (second compound 0.3 µM, first compound 0.001 µM): 87.7% | viability, T/C [13]: 80.7% | viability, T/C [14]: 94.1% | viability, T/C [15]: 85.4% | viability, T/C [16]: 87.8% | viability, T/C (second compound 0.949 µM, first compound 0.000316 µM): 94.7% | viability, T/C (second compound 0.949 µM, first compound 0.001 µM): 87.2% | viability, T/C [17]: 87.9% | viability, T/C [18]: 97.3% | viability, T/C [19]: 92.8% | viability, T/C [20]: 82.5% | viability, T/C (second compound 3 µM, first compound 0.000316 µM): 80.9% | viability, T/C (second compound 3 µM, first compound 0.001 µM): 83.2% | viability, T/C [21]: 85.2% | viability, T/C [22]: 71% | viability, T/C [23]: 75.9% | viability, T/C [24]: 82.7%
